Results on three compounds are retold here after publication PMC5600277 (Neuropharmacology, 2017).

Holding throughout (assay type): cell-based
The target of test [1] is T1, GABAρ receptor (GABAAR ρ1) (Homo sapiens, UniProt P24046). The test can be described thus: two-electrode voltage clamp in Xenopus oocytes, […] inhibition at […]. Particulars: read-out: % inhibition at 10 μM. In general terms: Two-electrode voltage clamp holds a large cell at a set potential and records current.
In test [2] the target is T2, GLIC (Gloeobacter violaceus, UniProt Q7NDN8).
T2 sequence (Q7NDN8 44-359): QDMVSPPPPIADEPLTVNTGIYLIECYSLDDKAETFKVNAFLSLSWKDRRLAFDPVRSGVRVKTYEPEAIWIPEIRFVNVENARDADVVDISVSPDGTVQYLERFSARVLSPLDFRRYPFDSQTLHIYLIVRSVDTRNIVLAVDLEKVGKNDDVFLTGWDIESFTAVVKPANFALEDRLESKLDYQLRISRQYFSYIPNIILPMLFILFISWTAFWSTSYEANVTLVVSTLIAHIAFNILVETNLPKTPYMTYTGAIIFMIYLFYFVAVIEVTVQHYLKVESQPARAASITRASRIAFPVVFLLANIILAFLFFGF
The test is described as above. The note with it: read-out: % inhibition at 30 μM.

For test [3], the target named is T2, GLIC. Described as above. Particulars: read-out: % inhibition at 100 μM.
The target of test [4] is T2, GLIC. The description is as above. The note with it: read-out: % inhibition at 30 μM. The source holds these as a separate data set.
Test [5] deals with T1, GABAρ receptor (GABAAR ρ1). The test can be described thus: two-electrode voltage clamp in Xenopus oocytes, […] potentiation at […]. The note with it: read-out: % potentiation at 10 μM.

Each structure is given as a SMILES string. Where two headings read alike, the source gives them in different places.

T1 sequence (P24046 22-479): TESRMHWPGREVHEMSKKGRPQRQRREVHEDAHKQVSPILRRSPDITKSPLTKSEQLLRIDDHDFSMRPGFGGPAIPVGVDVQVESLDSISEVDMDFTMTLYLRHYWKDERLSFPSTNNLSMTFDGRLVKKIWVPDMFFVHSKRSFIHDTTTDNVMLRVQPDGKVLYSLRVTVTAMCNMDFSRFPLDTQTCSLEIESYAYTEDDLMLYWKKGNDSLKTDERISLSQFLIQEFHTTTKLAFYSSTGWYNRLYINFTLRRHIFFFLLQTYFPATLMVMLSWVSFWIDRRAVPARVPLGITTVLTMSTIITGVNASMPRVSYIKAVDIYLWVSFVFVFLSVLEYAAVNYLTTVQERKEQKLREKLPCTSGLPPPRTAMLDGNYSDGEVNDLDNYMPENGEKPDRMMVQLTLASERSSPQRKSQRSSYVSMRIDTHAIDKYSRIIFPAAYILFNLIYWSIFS

For the compound `C[C@]12CC[C@@H](O)C[C@H]1CC[C@@H]1[C@@H]2CC[C@]2(C)[C@@H](C(=O)CO)CC[C@@H]12` [5β-THDOC], in test [1], the inhibition at 10 µM came to 25 ± 2%. Also, on GLIC [2], the inhibition at 30 µM is 67 ± 3%. With `CCCC(C)C1(CC)C(=O)NC(=O)NC1=O` (centres unmarked) [PB, pentobarbital], on GLIC [3], the inhibition at 100 µM worked out at 26 ± 6%. Take `C[C@]12CC[C@@H](O)C[C@@H]1CC[C@@H]1[C@@H]2CC[C@]2(C)[C@@H](C(=O)CO)CC[C@@H]12` [5α-THDOC]: on GLIC [4], the inhibition at 30 µM was found to be 11 ± 2%. Also, in test [5], the activation at 10 µM was found to be 42 ± 2%.

What is called inhibition is the change of the read-out against control, counted positive when it falls.
